According to ChEMBL document CHEMBL4219169, “Sulfoximines as potent RORγ inverse agonists” (Bioorg Med Chem Lett, 2018):
Converted amounts (≈) assume the structure as drawn.

Legend:
[1] = Fraction unbound in human plasma at 5 uM incubated for 4 hrs at 37 degC by LC-MS/MS method; format: ADME, cell-free
[2] = Intrinsic clearance in human hepatocytes assessed per million cells at 1 uM incubated for 5 to 90 mins by LC-MS/MS method; format: ADME, cell-based, Hepatocyte; conditions: read-out: CLH
[3] = Solubility of the compound in PG/EtOH96 (3/7) solution incubated for 24 hrs by UV spectrometry; format: physicochemical
[4] = Phototoxicity against human neonatal keratinocytes assessed as cell viability preincubated for 30 mins before 5 J/cm2 UV light irradiation for 15 mins followed by treatment medium replacement with fresh culture medium after 24 hrs by neutral red dye-based assay; conditions: 0.25 h
Salmonella typhimurium [5] = test: Genotoxicity in Salmonella typhimurium TA98 in presence of aroclor-1254-induced rat S9 fraction by Ames test; format: toxicity, organism-based; conditions: salmonella enterica subsp. enterica serovar typhimurium
Salmonella typhimurium [6] = test: Genotoxicity in Salmonella typhimurium TA100 in presence of aroclor-1254-induced rat S9 fraction by Ames test; format: toxicity, organism-based; conditions: salmonella enterica subsp. enterica serovar typhimurium
TK6 [7] = test: Genotoxicity in human TK6 cells incubated for 27 hrs in absence of aroclor-1254-induced rat S9 fraction by Giemsa staining dependent optical microscopy based micronucleus test; format: toxicity, cell-based; conditions: tk6, 27 h
TK6 [8] = test: Genotoxicity in human TK6 cells incubated for 3 hrs in presence of aroclor-1254-induced rat S9 fraction followed by 27 hrs recovery period by Giemsa staining dependent optical microscopy based micronucleus test; format: toxicity, cell-based; conditions: s9, 3 h
TK6 [9] = test: Genotoxicity in human-derived p53-competent TK6 cells expressing GADD45a-dependent green fluorescent protein assessed as decrease in cell viability after 48 hrs in presence of Sprague-Dawley rat S9 fraction by FACS analysis; format: toxicity, cell-based; conditions: s9, 48 h
Mus musculus [10] = test: (§1) In vivo inverse agonist activity at RORgamma in wild type BALB/c ByJ Rj mouse model of imiquimod-induced skin inflammation model assessed as attenuation of imiquimod-induced epidermal hyperplasia at 0.5 to 6% administered topically twice daily for 7 days dosed 2 hrs before and 6 hrs after imiquimod administration measured on day 8 by hematoxylin and eosin staining-based histological analysis; format: functional, organism-based
Mus musculus [11] = test: as §1, with “0.5%” for “0.5 to 6%”; format: functional
Mus musculus [12] = test: as §1, with “1%” for “0.5 to 6%”; format: functional
Mus musculus [13] = test: as §1, with “3%” for “0.5 to 6%”; format: functional

fraction unbound at 4 h, 5 µM [1]: 0.048
hepatocyte CLint at 1 µM [2]: 180 µL/min/1e6 cells
solubility at 24 h [3]: 31 mM (≈ 15.8 mg/mL)
Structure (SMILES): CCc1ccc(N(CC(C)C)S(=O)(=O)c2ccc(OCC3CCOCC3)c([S@@](C)(=N)=O)c2)cc1
Activity [4]: Non-Toxic
Activity (Salmonella typhimurium [5]): Non-Toxic
Activity (Salmonella typhimurium [6]): Non-Toxic
Activity (TK6 [7]): Non-Toxic
Activity (TK6 [8]): Non-Toxic
Activity (TK6 [9]): Non-Toxic
Activity (Mus musculus [10]): Dose-dependent effect
Activity (Mus musculus [11]): 29%
Activity (Mus musculus [12]): 35%
Activity (Mus musculus [13]): 46%
